Source: patent publication US9023821B2, “Use of MicroRNA for treating diseases associated with a dysfunction of the cilia in multiciliated epithelial cells” (Centre National de la Recherche Scientifique, priority 2009, dated 2015)

Assays:
[1] = tested on: human airway epithelial cells (HAECs); assay: Agilent miRNA chips, miRNA expression at four stages of differentiation of HAECs; details: for Modulation (ratio of the level of intensity of expression in log2 in two stages of differentiation) measured with the Agilent chips, D7 − D0 / Modulation (ratio of the level of intensity of expression in log2 in two stages of differentiation) measured with the Agilent chips, FC − D7 / Modulation (ratio of the level of intensity of expression in log2 in two stages of differentiation) measured with the Agilent chips, WD − D0 / Modulation (ratio of the level of intensity of expression in log2 in two stages of differentiation) measured with the Agilent chips, WD − FC / Level of intensity of expression in log2 measured with the Agilent chips, D0 / Level of intensity of expression in log2 measured with the Agilent chips, D7 / Level of intensity of expression in log2 measured with the Agilent chips, FC / Level of intensity of expression in log2 measured with the Agilent chips, WD: Table VI; for Level of intensity of expression in log2 measured with the Agilent chips, D0: stage D0; for Level of intensity of expression in log2 measured with the Agilent chips, D7: stage D7; for Level of intensity of expression in log2 measured with the Agilent chips, FC: stage FC; for Level of intensity of expression in log2 measured with the Agilent chips, WD: stage WD
How it was run: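 Microarray v2 (866 human + 89 viral miRNAs; miRBase v.12.0). Input: RNA from the same donors as sequencing. Labelling/hybridization per kit protocol. Profiles cross-checked vs sequencing.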

[2] = tested on: basal cells and pyramidal cells of the airway epithelium; assay: miRNA expression in sorted basal cells versus pyramidal cells (ciliated + secretory), HTS and Agilent chips; parameters: species or system human; details: for Modulation of expression of the miRNAs in pyramidal cells (323(−)) relative to basal cells 323(+): HTS and Agilent chips; for Intensity of the level of expression in log2 in pyramidal cells (323(−)): pyramidal cells (ciliated + secretory)
How it was run: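 Read-out is miRNA profiling of total RNA, by Agilent chips or by high-throughput sequencing, in two sorted populations. These were basal cells (CD151+/TF+) and pyramidal ciliated/secretory cells (CD151−/TF−) from airway epithelium of 3 donors.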

[3] = tested on: human airway epithelial cells (HAECs); assay: High-throughput sequencing (HTS) of miRNAs at four stages of differentiation of HAECs; details: for Modulation (ratio of the level of intensity of expression in log2 in two stages of differentiation) measured by high-throughput sequencing, D7 − D0 / Modulation (ratio of the level of intensity of expression in log2 in two stages of differentiation) measured by high-throughput sequencing, FC − D7 / Modulation (ratio of the level of intensity of expression in log2 in two stages of differentiation) measured by high-throughput sequencing, WD − D0 / Modulation (ratio of the level of intensity of expression in log2 in two stages of differentiation) measured by high-throughput sequencing, WD − FC / Level of intensity of expression in log2 measured by high-throughput sequencing, D0 / Level of intensity of expression in log2 measured by high-throughput sequencing, D7 / Level of intensity of expression in log2 measured by high-throughput sequencing, FC / Level of intensity of expression in log2 measured by high-throughput sequencing, WD: Table VI; for Abundance (%), D0: ALI-D0; for Abundance (%), D7: ALI-D7; for Abundance (%), FC: ALI-FC; for Abundance (%), WD: ALI-WD; for Level of intensity of expression in log2 At the differentiated stage (WD) measured in HTS: healthy human airway epithelial tissue; for Level of intensity of expression in log2 measured by high-throughput sequencing, D0: stage D0; for Level of intensity of expression in log2 measured by high-throughput sequencing, D7: stage D7; for Level of intensity of expression in log2 measured by high-throughput sequencing, FC: stage FC; for Level of intensity of expression in log2 At the differentiated stage (WD) measured in HTS / Level of intensity of expression in log2 measured by high-throughput sequencing, WD: stage WD
How it was run: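 Cells at four air-liquid interface differentiation stages were lysed and total RNA with miRNAs purified. Adaptor Mix A or B ligation (16° C, 2-16 h) allowed 5′ or 3′ end sequencing. Abundance cut-off was 1% of total miRNAs in at least one stage.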

Substance | Modulation (ratio of the level of intensity of expression in log2 in two stages of differentiation) measured with the Agilent chips, D7 − D0 [1] [log2] | Modulation (ratio of the level of intensity of expression in log2 in two stages of differentiation) measured with the Agilent chips, FC − D7 ([1]; FC − D7) [log2] | Modulation (ratio of the level of intensity of expression in log2 in two stages of differentiation) measured with the Agilent chips, WD − D0 [1] [log2] | Modulation (ratio of the level of intensity of expression in log2 in two stages of differentiation) measured with the Agilent chips, WD − FC ([1]; WD − FC) [log2] | Level of intensity of expression in log2 measured with the Agilent chips, D0 [1] [log2] | Level of intensity of expression in log2 measured with the Agilent chips, D7 [1] [log2] | Level of intensity of expression in log2 measured with the Agilent chips, FC [1] [log2] | Level of intensity of expression in log2 measured with the Agilent chips, WD [1] [log2] | Modulation of expression of the miRNAs in pyramidal cells (323(−)) relative to basal cells 323(+) [2] | Intensity of the level of expression in log2 in basal cells (323(+)) [2] [log2] | Intensity of the level of expression in log2 in pyramidal cells (323(−)) [2] [log2] | Modulation (ratio of the level of intensity of expression in log2 in two stages of differentiation) measured by high-throughput sequencing, D7 − D0 [3] [log2] | Modulation (ratio of the level of intensity of expression in log2 in two stages of differentiation) measured by high-throughput sequencing, FC − D7 [3] [log2] | Modulation (ratio of the level of intensity of expression in log2 in two stages of differentiation) measured by high-throughput sequencing, WD − D0 [3] [log2] | Modulation (ratio of the level of intensity of expression in log2 in two stages of differentiation) measured by high-throughput sequencing, WD − FC [3] [log2] | Level of intensity of expression in log2 At the differentiated stage (WD) measured in HTS [3] [log2] | Level of intensity of expression in log2 measured by high-throughput sequencing, D0 [3] [log2] | Level of intensity of expression in log2 measured by high-throughput sequencing, D7 [3] [log2] | Level of intensity of expression in log2 measured by high-throughput sequencing, FC [3] [log2] | Level of intensity of expression in log2 measured by high-throughput sequencing, WD [3] [log2] | also measured
hsa-miR-203: human miRNA, SEQ ID No. 19 (GUGAAAUGUUUAGGACCACUAG; expressed or natural sequence; listed as Homo sapiens) | 0.97 | −0.67 | 0.44 | 0.13 | 10.64 | 11.61 | 10.95 | 11.08 | −3.50 | 3.64 | 0.14 | 0.11 | −0.21 | 1.08 | 1.18 | 14.55 | 13.50 | 13.60 | 13.39 | 14.57 | Modulation (ratio of the level of intensity of expression in log2 in two stages of differentiation), D7 − D0 ([3]; HTS): 0.11 log2; Modulation (ratio of the level of intensity of expression in log2 in two stages of differentiation), FC − D7 ([3]; HTS): −0.21 log2; Modulation (ratio of the level of intensity of expression in log2 in two stages of differentiation), WD − FC ([3]; HTS): 1.18 log2; Abundance (%), D0 ([3]; HTS): 2.53%; Level of intensity of expression in log2, D0 ([3]; HTS, ALI-D0 (proliferation)): 13.49 log2; Abundance (%), D7 ([3]; HTS): 2.73%; Abundance (%), FC ([3]; HTS): 2.29%; Abundance (%), WD ([3]; HTS): 3.92%
hsa-miR-205: human miRNA, SEQ ID No. 20 (UCCUUCAUUCCACCGGAGUCUG; expressed or natural sequence; listed as Homo sapiens) | 1.00 | −0.72 | −0.11 | −0.39 | 13.18 | 14.18 | 13.46 | 13.07 | −7.00 | 12.44 | 5.44 | 0.62 | −1.12 | −0.06 | 0.44 | 15.24 | 14.61 | 15.23 | 14.11 | 14.55 | cell type in which the miRNA is specifically expressed ([2]; sorted ciliated/pyramidal versus basal cells): more specific to the basal cells; Modulation (ratio of the level of intensity of expression in log2 in two stages of differentiation), D7 − D0 ([3]; HTS): 0.62 log2; Modulation (ratio of the level of intensity of expression in log2 in two stages of differentiation), FC − D7 ([3]; HTS): −1.12 log2; Modulation (ratio of the level of intensity of expression in log2 in two stages of differentiation), WD − FC ([3]; HTS): 0.44 log2; Abundance (%), D0 ([3]; HTS): 5.48%; Abundance (%), D7 ([3]; HTS): 8.43%; Abundance (%), FC ([3]; HTS): 3.76%; Abundance (%), WD ([3]; HTS): 3.87%
hsa-miR-210: human miRNA, SEQ ID No. 22 | 0.18 | −0.63 | −0.56 | −0.11 | 9.08 | 9.25 | 8.63 | 8.52 | −2.03 | 6.60 | 4.57 | −0.96 | −0.74 | −1.80 | −0.10 | 9.29 | 12.29 | 11.33 | 10.60 | 10.49 | Modulation (ratio of the level of intensity of expression in log2 in two stages of differentiation), D7 − D0 ([3]; HTS): −0.96 log2; Modulation (ratio of the level of intensity of expression in log2 in two stages of differentiation), FC − D7 ([3]; HTS): −0.74 log2; Modulation (ratio of the level of intensity of expression in log2 in two stages of differentiation), WD − FC ([3]; HTS): −0.10 log2; Abundance (%), D0 ([3]; HTS): 1.10%; Abundance (%), D7 ([3]; HTS): 0.57%; Abundance (%), FC ([3]; HTS): 0.33%; Abundance (%), WD ([3]; HTS): 0.23%
hsa-miR-224: human miRNA, SEQ ID No. 24 (CAAGUCACUAGUGGUUCCGUU; expressed or natural sequence; listed as Homo sapiens) | 2.55 | −0.87 | 1.68 | 0.00 | 6.84 | 9.40 | 8.52 | 8.52 | −2.84 | 3.65 | 0.82 | 1.52 | −0.72 | 1.63 | 0.83 | 14.10 | 9.59 | 11.12 | 10.39 | 11.22 | Modulation (ratio of the level of intensity of expression in log2 at two stages of differentiation), FC − D7 ([1]; FC − D7, Agilent miRNA chips, Table V): −0.87 log2; Modulation (ratio of the level of intensity of expression in log2 at two stages of differentiation), WD − FC ([1]; WD − FC, Agilent miRNA chips, Table V): 0.00 log2
